How the values were obtained:
Format in all cases: physicochemical
[1] = Measurement of hygroscopicity (moisture adsorption measurement); settings: 25° C., reduced pressure type moisture adsorption measurement apparatus
Description: The hygroscopicity of the title compound of Example 3 was measured under the following conditions using a moisture adsorption measurement apparatus. • apparatus: MB-300G manufactured by VTI • measurement temperature: 25° C. • measurement range: 0-95% RH
The title compound of Example 3 was subjected to a moisture adsorption measurement using a reduced pressure type moisture adsorption measurement apparatus.

[2] = Measurement of solubility in water (visual observation); settings: 37° C., shaken 1 hr
Description: As a measurement method, visual observation was used, which permits convenient evaluation of rough solubility with a small amount of sample. The temperature during measurement was 37° C. About 3 mg of the title compound of Example 3 was taken in a sample bottle with a screw cap, a test solution (0.15 mL) was added and the cap was screwed tightly thereon. The sample was ultrasonicated for 1 min to give a dispersion, which was placed in a shaking-type thermostat water bath stabilized at 37° C. and shaken for 1 hr. Then, dissolution was confirmed by visual observation.

[3] = Measurement of solubility at pH 9-13 (HPLC)
Description: Using 0.2 mol/L NaOH/0.1 mol/L NaCl mixed solution as a test solution, the solubility of the title compound of Example 3 having a pH of 9-13 at room temperature was analyzed by liquid chromatography (HPLC) (n=3). […] From the foregoing, the solubility of the title compound of Example 3 was concluded to be about 7 mg/mL.

- state of water content ([1]; 0% RH): almost completely dry
- water maintained, corresponding to hydrate ([1]; 50% RH): 1.8 hydrate
- solubility in water [2]: not less than 20 mg/mL
- Solubility ([3]; pH 8.81, 25° C.): 8400 µg/mL
- solubility (concluded) ([3]; pH 9-13, room temperature, conclusion from the measured range): about 7 mg/mL
- Solubility ([3]; pH 11.94, 25° C.): 7200 µg/mL
- Solubility ([3]; pH 11.98, 25° C.): 7900 µg/mL
- Solubility ([3]; pH 12.10, 25° C.): 7200 µg/mL
- Solubility ([3]; pH 12.26, 25° C.): 7800 µg/mL
- Solubility ([3]; pH 12.70, 25° C.): 6400 µg/mL
- Solubility ([3]; pH 12.99, 25° C.): 6800 µg/mL
SMILES: Br.Br.Br.Br.Br.Cc1cc(N2CCN([C@@H]3CN[C@H](C(=O)N4CCSC4)C3)CC2)n(-c2ccccc2)n1.Cc1cc(N2CCN([C@@H]3CN[C@H](C(=O)N4CCSC4)C3)CC2)n(-c2ccccc2)n1 [Example 3, 3-{(2S,4S)-4-[4-(3-methyl-1-phenyl-1H-pyrazol-5-yl)piperazin-1-yl]pyrrolidin-2-ylcarbonyl}thiazolidine 2.5 hydrobromide]
